From patent US20260306525A1, “COMBINATION THERAPY GLUCOCORTICOIDS AND GINSENOSIDE” (FYTAGORAS B.V., priority 2023, published 2026) come the findings set out here.

One data set has as its system zebrafish embryos. The note with it: in vivo.
The subject of another data set is IL1B. The experiment in a line: qPCR IL1B expression in TNF-α-treated HeLa cells. Type of data set: cell-based, human. Conditions: for IL1B expression (TNF-α induced) / IL1B expression (TNF-α induced), short-term: 6 h; for IL1B expression (TNF-α induced): 0.01 μM beclomethasone, 20 μM Rg1 or combination. The protocol:
(§1) HeLa (human cervical cancer) cells were cultured in Dulbecco's Modified Eagle's (DMEM) High Glucose (HG) medium without phenol red supplemented with 10% Fetal Calf Serum (FCS) and 10% Glutamax (Sigma-Aldrich). The cells were maintained at 37° C. and 5% CO2. At 24 h before adding the treatment, the medium was replaced by DMEM HG with 10% charcoal-inactivated serum and 10% Glutamax (Sigma-Aldrich). The cells were exposed to short- and long-term compound treatments. […] Subsequently, TNF-α (10 ng/ml) was added along with the compound treatments for 6 h (this last step was not added in the actinomycin-D and cycloheximide experiments).
(§2) To determine levels of gene expression in zebrafish larvae, 3 dpf larvae were used in both wounded and non-wounded conditions, and after short- and long-term treatments. Groups of 15 larvae were collected in TRIzol reagent (ThermoFisher) and total RNA was isolated using miRNeasy mini kit (Qiagen, Hilden, Germany). For experiments in HeLa cells, cells were seeded in 6 well plates and after treatment, the cells were removed from the wells using TRIzol reagent and mRNA was isolated using miRNeasy mini kit (Qiagen) according to the manufacturer's instructions. The RNA samples were DNAse-treated utilizing the DNA-free™ DNA Removal Kit (ThermoFisher Scientific). The cDNA synthesis was performed using the iScript cDNA synthesis kit (Bio-Rad Laboratories, Hercules, CA, USA) using 1 μg of RNA per sample. For qPCR, 10 μM of forward primer and 10 μM of reverse primer, 12.5 μl of IQ SYBR Green Supermix (Bio-Rad Laboratories), and 2 μl of cDNA were added to the qPCR reaction mixture. […] The qPCR reactions were performed on a MyiQ-single-color real-time PCR detection system (Bio-Rad Laboratories), with initial denaturation for 3 min, 95° C., and 40 cycles of 15 s at 95.5° C., 15 s at 60° C., and 30 s at 72° C. Cycle threshold values (Ct values, i.e. the cycle numbers at which a threshold value of the fluorescence intensity was reached) were determined for each sample. The gene expression level for each sample was normalized using the expression of ppial (peptidylprolyl isomerase Ab (cyclophilin A)) for zebrafish samples, and 18S rRNA for human cells. The fold change per sample (compared to the respective control group) was calculated using the […]Ct method.

A further data set deals with IL8. The experiment in a line: qPCR IL8 expression in TNF-α-treated HeLa cells. It is filed as cell-based, human. The note with it: for IL8 expression (TNF-α induced): 0.01 μM beclomethasone, 20 μM Rg1 or combination; for IL8 expression, long-term: 30 h. On the procedure:
as §1, §2

Another data set has as its system FKBP5. The experiment in a line: qPCR FKBP5 expression in HeLa cells (GR transactivation). Conditions: beclomethasone 1 μM, Rg1 50 μM or combination. Type of data set: cell-based, human. On the procedure:
as §1, §2
For orientation: Real-time PCR tracks product formation cycle by cycle.

The test system of another data set is NFKBIA. The experiment in a line: qPCR NFKBIA expression in HeLa cells (GR transactivation). Type of data set: cell-based, human. Conditions: beclomethasone 1 μM, Rg1 50 μM or combination. The protocol: as §1, §2
The next data set relates to SGK1. The experiment in a line: qPCR SGK1 expression in HeLa cells (GR transactivation). It is filed as cell-based, human. The note with it: beclomethasone 1 μM, Rg1 50 μM or combination. The protocol: as §1, §2
In a further data set the test system is il6. The experiment in a line: qPCR il6 expression in zebrafish larvae. The note with it: for il6 expression after wounding: 10 μM beclomethasone, 50 μM Rg1 or combination, 4 h after wounding. Type of data set: in vivo, zebrafish (Danio rerio). On the procedure: as §2, with “The gene expression level for each sample was normalized using the expression of ppial (peptidylprolyl isomerase Ab (cyclophilin A)) for zebrafish samples, and 18S rRNA for human cells.” left out
To determine mRNA levels of specific genes in zebrafish, 3 dpf larvae were used (wounded and non-wounded) and after 6 h of chemical treatments (2 h pre-wounding, 4 h post-wounding), as indicated. […] Cycle threshold values (Ct values, i.e. the cycle numbers at which a threshold value of the fluorescence intensity was reached) were determined for each sample. […] The fold change per sample (compared to the respective control group) was calculated using the ΔΔCt method.

Another data set has as its system mmp9. The experiment in a line: qPCR mmp9 expression in zebrafish larvae. It is filed as in vivo, zebrafish (Danio rerio). The note with it: Example 2, wounded larvae. The protocol: To determine mRNA levels of specific genes in zebrafish, 3 dpf larvae were used (wounded and non-wounded) and after 6 h of chemical treatments (2 h pre-wounding, 4 h post-wounding), as indicated. Per sample, groups of 15 larvae were collected in TRIzol reagent (Thermo Fisher Scientific, Waltham, MA, USA), and total RNA was isolated using the miRNeasy mini kit (Qiagen, Hilden, Germany). For similar experiments in Hela cells, cells were seeded in 6 well plates, and after 6 h of chemical treatment, the cells were removed from the wells using TRIzol reagent, and total RNA was isolated using the miRNeasy mini kit according to the manufacturer's instructions. The RNA samples were DNAse-treated utilizing the DNA-free™ DNA Removal Kit (Thermo Fisher Scientific). The cDNA synthesis was performed using the iScript cDNA synthesis kit (Bio-Rad Laboratories, Hercules, CA, USA) using 1 μg of RNA per sample. For the PCR reactions, 10 μM of forward and 10 μM of reverse primer, 12.5 μl of iQ SYBR Green Supermix (Bio-Rad), and 2 μl of cDNA were added to the qPCR reaction mixture. […] Cycle threshold values (Ct values, i.e. the cycle numbers at which a threshold value of the fluorescence intensity was reached) were determined for each sample. […] The fold change per sample (compared to the respective control group) was calculated using the ΔΔCt method.

The mark [1] stands for this setting: beclomethasone 1 μM, Rg1 20 μM or combination.
Setting [2] is: beclomethasone 1 μM without or with Rg1 20 μM, TNF-α.

SMILES strings stand for the structures.

Protocol for zebrafish embryos: Fish Embryo Acute Toxicity Test (FET) was performed to determine the tolerated doses of the studied compounds. […] A range of three test concentrations (100, 120, and 150 μM) of Rg1, Rh1, and F1 and (25, 50, and 75M) of PPT was used. […] Stock solutions were made in DMSO, and final dilutions in egg water (60 μg/mL Instant Ocean Sea salts and 0.0025% methylene blue), such that the final DMSO concentration were 0.01%. The following controls were used: a negative control (nC, egg water), a solvent control (sC, 0.01% DMSO in egg water), and positive control (pC), 4 mg/L 3,4-dichloroaniline (Sigma-Aldrich, St. Louis, MO, USA) in egg water.
Embryos were collected around at 1.5 hpf and distributed over standard twenty-four well plates (10 embryos per well), with each well containing 2 mL of test solution. […] Five 24-well plates were prepared, each with 3 wells containing the Rg1, F1, or Rh1 solutions (100, 120, 150 μM), 3 wells containing the PPT (25, 50, and 75 μM), two for nC and sC, and one for pC (on each plate, 7 wells remained empty). All solutions were refreshed daily.
The plates were kept at a temperature between 26 and 27° C. and exposed to a 12 h light and 12 h dark cycle. At 96, and 120 hpf, the average survival rate (in %) for all experimental groups was determined. Additionally, hatching was recorded at 48 and 72 hpf. Survival rates for the studied compound and pC-treated groups from the five individual plates were averaged.

As to `CC(C)=CCC[C@](C)(O)[C@H]1CC[C@]2(C)[C@@H]1[C@H](O)C[C@@H]1[C@@]3(C)CC[C@H](O)C(C)(C)[C@@H]3[C@@H](O)C[C@]12C` [PPT, Protopanaxatriol], in the data set on zebrafish embryos, the “concentration until which no effects on hatching and survival were observed” value came out at 50 µM; the “concentration with considerable effects on hatching and survival” value came out at 75 µM.

As to `CC(C)=CCC[C@](C)(O[C@@H]1O[C@H](CO)[C@@H](O)[C@H](O)[C@H]1O)[C@H]1CC[C@]2(C)[C@@H]1[C@H](O)C[C@@H]1[C@@]3(C)CC[C@H](O)C(C)(C)[C@@H]3[C@@H](O)C[C@]12C` [F1], in the data set with zebrafish embryos, the “concentration until which no effects on hatching and survival were observed” value is 100 µM; the “concentration with minimal effects on hatching and survival” value turned out to be 120 µM.

On to `CC(C)=CCC[C@](C)(O[C@@H]1O[C@H](CO)[C@@H](O)[C@H](O)[C@H]1O)[C@H]1CC[C@]2(C)[C@@H]1[C@H](O)C[C@@H]1[C@@]3(C)CC[C@H](O)C(C)(C)[C@@H]3[C@@H](O[C@@H]3O[C@H](CO)[C@@H](O)[C@H](O)[C@H]3O)C[C@]12C` [Rg1, (3β,6α, 12β)-3,12-Dihydroxydammar-24-ene-6,20-diyl bis-β-D-glucopyranoside], for which, in the data set with IL1B, the “IL1B expression (TNF-α induced)” value was “slightly suppressed”. In addition, the “IL1B expression (TNF-α induced), short-term” value with IL1B (Rg1 20, 100 and 500 μM) is recorded as “caused a decrease in IL1B expression after short-term treatment”. In addition, the “IL1B expression (TNF-α induced), long-term vs short-term” value in the data set with IL1B (Rg1 20, 100 and 500 μM, 30 h) is given as “not significantly different after long-term treatment”. In the data set with IL8 (6 h), the “IL8 expression (TNF-α induced)” value is recorded as “slightly suppressed”. Further, the “IL8 expression, short-term” value in the data set with IL8 (beclomethasone 1 μM, Rg1 20 μM or combination, 6 h) is “slightly suppressed”. The “IL8 expression, long-term” value in the data set with IL8 (setting [1]) is “more strongly after long-term treatment”. Also, in the data set with FKBP5, the “FKBP5 expression, long-term” value is “did not affect the expression of these genes” and the “FKBP5 expression, short-term” value is reported as “did not affect the expression of these genes”. In the data set on NFKBIA, the “NFKBIA expression, long-term” value is on record as “did not affect the expression of these genes” and the “NFKBIA expression, short-term” value was “did not affect the expression of these genes”. Moreover, in the data set on SGK1, the “SGK1 expression, long-term” value is listed as “did not affect the expression of these genes” and the “SGK1 expression, short-term” value is reported as “did not affect the expression of these genes”. In addition, the “il6 expression after wounding” value in the data set on il6 is “slightly decreased the expression of these genes”.

With `C[C@H]1C[C@H]2[C@@H]3CCC4=CC(=O)C=C[C@]4(C)[C@@]3(Cl)[C@@H](O)C[C@]2(C)[C@@]1(O)C(=O)CO` [beclomethasone, reference compound], the “IL1B expression (TNF-α induced)” value in the data set with IL1B is “slightly suppressed”. Further, the “IL1B expression time course, short-term” value in the data set on IL1B (beclomethasone 0.01 μM, TNF-α) is given as “hardly showed an effect”. Also, in the data set on IL1B (setting [2]), the “IL1B expression time course, long-term” value is reported as “did not show a significant suppressive effect on the expression of IL1B” and the “IL1B expression time course, short-term” value is “exhibited a strong suppressive effect on the IL1B expression”. Further, in the data set on IL1B (beclomethasone 0.1 and 1 μM), the “IL1B expression (TNF-α induced), short-term” value was “strongly suppressed”. The “IL1B expression (TNF-α induced), long-term” value in the data set on IL1B (beclomethasone 0.1 and 1 μM, 30 h) is “a significant reduction in the suppressive effects of these high doses of beclomethasone was observed”. The “IL8 expression (TNF-α induced)” value in the data set on IL8 (6 h) is “slightly suppressed”. In addition, the “IL8 expression, long-term” value in the data set on IL8 (setting [1]) was “the suppressive effects of beclomethasone were significantly reduced after long-term treatment”. Besides, in the data set with FKBP5, the “FKBP5 expression, long-term” value is “increased over time” and the “FKBP5 expression, short-term” value is “strongly increased the expression of these genes after short-term treatment”. Besides, in the data set with NFKBIA, the “NFKBIA expression, long-term” value was “reduced over time” and the “NFKBIA expression, short-term” value is listed as “strongly increased the expression of these genes after short-term treatment”. Further, in the data set with SGK1, the “SGK1 expression, long-term” value is “reduced over time” and the “SGK1 expression, short-term” value was “strongly increased the expression of these genes after short-term treatment”. Moreover, in the data set with il6, the “il6 expression after wounding” value is recorded as “slightly decreased the expression of these genes”. Further, in the data set on il6 (Example 2, wounded larvae), the il6 expression entry is “suppressed the expression levels of il1b, il6 and mmp9, similarly to Bec”. The mmp9 expression entry in the data set with mmp9 is “suppressed the expression levels of il1b, il6 and mmp9, similarly to Bec”.
